Measurements reported in paper PMC4999093, “Novel NAD^+-Farnesal Dehydrogenase from Polygonum minus Leaves. Purification and Characterization of Enzyme in Juvenile Hormone III Biosynthetic Pathway in Plant” (PLoS ONE, 2016).

Test system: T1, NAD^+-farnesal dehydrogenase (P. minus farnesal dehydrogenase)
T1 construct: native enzyme purified from leaves, untagged
Test: NADH formation at […] nm, Lineweaver-Burk
Format: biochemical, Persicaria minor
Conditions: 100 mM glycine-NaOH pH 9.5, 35°C

CC(C)=CCCC(C)=CC=O (mixture of isomers) [Citral, 3,7-dimethyl-2,6-octadienal]
Km (1.0 mM NAD+, substrate is a mixture of geranial and neral): 690 µM

CC(C)=CCC/C(C)=C/CC/C(C)=C/C=O (mixture of isomers) [Farnesal, 3,7,11-trimethyl-2,6,10-dodecatrienal]
Km (1.0 mM NAD+, substrate is a mixture of isomers): 130 µM

NC(=O)c1ccc[n+]([C@@H]2O[C@H](COP(=O)(O)OP(=O)(O)OC[C@H]3O[C@@H](n4cnc5c(N)ncnc54)[C@H](O)[C@@H]3O)[C@@H](O)[C@H]2O)c1 [NAD^+]
Km (co-substrate farnesal): 310 µM

O=C/C=C/c1ccccc1 [trans-cinnamaldehyde]
Km (1.0 mM NAD+): 860 µM

C/C(C=O)=C\c1ccccc1 [α-methylcinnamaldehyde]
Km (1.0 mM NAD+): 1280 µM
